Patent US7112555B1, “Use of glycuronic polysaccharides and oligosaccharides as phytosanitary products and/or fertiliser” (Centre National de la Recherche Scientifique, priority 1999, dated 2006)

Legend:
1,3β-D-glucanase = 1,3β-D-glucanase response induced in the protoplasts of Rubus; type: cell-based, Rubus fruticosus L.; conditions: for 1,3-β-D-glucanase activity (% control): elicitor 50 nM, 2.10^6 protoplasts
Method: (§1) Experimental conditions: (1) preparation of protoplasts from cell suspensions of Rubus fruticosus L.; (2) incubation, or not, of n samples of 2.10^6 protoplasts in the presence of “elicitors” (1,4-D-glucuronan polymers and 1,4β-D-galacturonan (400 μg/L) polymers, 1,4β-D-glucuronan oligomers of average DP 8, 1,4β-D-mannuronan oligomers of DP 4, and 1,4β-D-guluronan oligomers of DP 4 (50 nM)); (3) after 20 minutes, the protoplasts whether may be treated or not, are subjected to enzymatic extraction. 2 μg of proteins are used per enzymatic test, and per incubation period. The viability of the protoplasts is maintained at 95% for an experimental period of 6 hours; the Evans blue viability test used verifies the integrity of the plasmalemma.
Methodology: measurement of activity (1,3β-D-glucanase) is based on the calorimetric dosage (ferricyan test) of the substrate-reducing units (reduced hexamer from laminarin) released during hydrolysis. Based on the kinetics developed, curves are traced whose equations make it possible to calculate the speed of the enzymatic reaction. 2 kinetics, at least, are developed per sample, and per experimental “set”. In general, at least 8 kinematics from samples of 2 independent “sets” are developed.
Results: the enzymatic activation elicited in the protoplasts is expressed as a % of the activity in the controls.

[1] = system: xyloglucan endotransglycolase; assay: Xyloglucan endotransglycolase (XET) response induced in protoplasts of Rubus; type: cell-based; conditions: 50 nM, in 20 minutes
Method: Experimental elicitation conditions. 2.10^6 protoplasts in 1 ml Tris-HCl buffer (pH 4.8) are incubated in the presence, or not, of an elicitor (50 nM) or of a hormone (50 nM): mannuronan oligomer of DP4 or glucuronan oligomer of DP8 or gibberellin GA3. After 20, 40, 60, 100 and 120 minutes of interaction, the protoplasts are recovered by centrifugation, then subjected to enzymatic extraction.
Methodology: measurement of XET activity is carried out in the wells of microtitration plates in 4 stages. Stage 1: immobilization of the acceptor, i.e. the neoglycoprotein XXLG≈BSA. Stage 2: introduction of the reaction medium (XET enzymatic extraction (equivalent to 1 μg of proteins) substrate marked DIG, i.e. XG≈DIG in the Tris-HC1 buffer, pH=7, 25 mM). Stage 3: immunomarking according to the anti-DIG marked peroxydase sequence, anti-peroxydase marked peroxydase. Stage 4: dosage of the peroxydase activity in a citrate-phosphate buffer ([…], pH 5.5).
The peroxydase activity is measured at 492 nm. At least 3 curves of peroxydase activity are traced per experimental condition, and the experiments are carried out using 3 protoplast suspensions. The XET activity is measured by the slope (ΔA 492) of the curve deduced by linear regression from 9 peroxydase kinetics curves.

1,4β-D-glucanase = 1,4β-D-glucanase response induced in protoplasts of Rubus; type: cell-based, Rubus fruticosus L.; conditions: elicitor 50 nM, 20 minutes, 2.10^6 protoplasts
Method: as §1
Experimental elicitation conditions: identical to those reported above.
Methodology: measurement of activity (1,4β-D-glucanase) is based on the calorimetric dosage (ferricyan test) described above of the substrate-reducing units (reduced cellopentaose) released during hydrolysis.

Compound	amplification factor of XET activity versus non-elicited protoplasts [1]	1,3-β-D-glucanase activity (% control) (1,3β-D-glucanase; 20 minutes)	also measured
1,4β-D-glucuronan polymer			amplification factor of 1,3-β-D-glucanase activity in plant protoplasts (1,3β-D-glucanase; nanomolar concentration, in 20 minutes): 1.3
C=C1C[C@]23C[C@@]1(O)CC[C@H]2[C@@]12C=C[C@H](O)[C@](C)(C(=O)O1)[C@H]2[C@@H]3C(=O)O [GA3, gibberellin GA3, reference compound]	1.12		
glucuronan oligomer of DP8	1.62		
oligo 1,4-β-D-guluronan of DP 4 [e]		146	1,4β-D-glucanase activity (% control) (1,4β-D-glucanase): 101 % control; effectiveness of 1,3-β-D-glucanase induction among the other products tested (1,3β-D-glucanase; 50 nM, 20 minutes): most effective
oligo 1,4-β-D-mannuronan of DP 4	2.12	122	
